Experimental data published in PubChem BioAssay (NCI).
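Protocol summary: plate cells (96-well), add compound at 5 concentrations, incubate 48 h, interpolate endpoints linearly. The concentration for 50% growth inhibition is given as GI50. TGI: concentration producing complete growth inhibition.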 Active and inactive are the calls of the source. No stated cut-off is given here; in the data, active means GI50 below about 0.43 µM; inactive means the rest.

What was measured:
Test in all cases: NCI anticancer screen, dose series, 48 h
LXFL 529 NSCLC = system: LXFL 529 NSCLC
M19-MEL melanoma = system: M19-MEL melanoma
HOP-18 NSCLC = system: HOP-18 NSCLC
XF 498 CNS = system: XF 498 CNS
DMS 114 small cell lung = system: DMS 114 small cell lung
HS 578T breast = system: HS 578T breast
MDA-MB-231 breast = system: MDA-MB-231 breast
PC-3 prostate = system: PC-3 prostate
MDA-MB-435 = system: MDA-MB-435
MCF7 breast = system: MCF7 breast

SMILES	TGI (LXFL 529 NSCLC)	TGI (M19-MEL melanoma)	TGI (HOP-18 NSCLC)	TGI (XF 498 CNS)	TGI (DMS 114 small cell lung)	outcome (LXFL 529 NSCLC)	GI50 (M19-MEL melanoma)	outcome (XF 498 CNS)	GI50 (DMS 114 small cell lung)	TGI (HS 578T breast)	TGI (MDA-MB-231 breast)	TGI (PC-3 prostate)	TGI (MDA-MB-435)	TGI (MCF7 breast)
COc1ccccc1NC(=O)CC(=O)N/N=C/c1ccc(N(CCC#N)S(=O)(=O)c2ccccc2)cc1	> 100 µM	> 100 µM	> 100 µM	> 100 µM	> 100 µM									
N#CC1CC2(CCN1C(=O)c1ccccc1)OCCO2 (stereo not given)	> 100 µM	> 100 µM	> 100 µM	> 100 µM	> 100 µM									
COc1cccc(NC(=O)/C(Cc2nc3ccccc3nc2C)=N/NC(=O)C[n+]2ccccc2)c1	> 100 µM	> 100 µM	> 100 µM	> 100 µM	> 100 µM									
O=C1C(=Cc2c(O)cc(O)cc2O)C(=O)c2ccccc21	> 57.5 µM	> 53 µM	58.7 µM		> 100 µM									
COc1cc2c(cc1OC)/C(=C\c1ccccc1N)C(=O)OC2	17.7 µM	39.2 µM	26.8 µM		34.7 µM									
CC(=O)OCC1OC(n2c(-c3ccc(C)cc3)cc(-c3ccccc3)c(C#N)c2=O)C(OC(C)=O)C(OC(C)=O)C1OC(C)=O (stereo not given)	> 100 µM	> 100 µM		> 100 µM	> 100 µM									
COC(C)(C)C/C=C/C(C)=C/C=C/C(C)=C\C=C\C(C)=C\C=C\C=C(C)\C=C\C=C(C)\C=C\C=C(C)\C=C\CC(C)(C)OC		> 150 µg/mL			> 150 µg/mL	inactive	> 150 µg/mL	inactive	> 150 µg/mL					
CCOC(=O)c1[nH]c(COC(C)=O)c2c1CCCCCCCCCC2	> 100 µM	> 100 µM	> 100 µM	> 100 µM	> 100 µM									
O=C(NC12CC3CC(CC(C3)C1)C2)C(=O)c1c[nH]c2ccccc12	26.5 µM	36.2 µM		25.7 µM	36 µM									
Cc1cc(C)c(-n2c(-c3ccc(Br)cc3)cs/c2=N\N=C2C=C(C(C)(C)C)C(=O)C(C(C)(C)C)=C2)c(C)c1	> 100 µM	> 100 µM	> 100 µM	> 100 µM	> 100 µM					62.5 µM	> 100 µM	> 100 µM	> 100 µM	> 100 µM
COC(=O)Nc1nc2ccc(Br)cc2[nH]1	> 100 µM	> 100 µM	> 100 µM	86.5 µM	> 100 µM									
COc1ccc(OCC(=O)O)c(C(=O)CCC(=O)O)c1	> 100 µM	> 100 µM		> 100 µM	> 100 µM									
Cc1cc(Cl)ccc1NC(=O)CC1SC(=Nc2ccccc2Cl)NC1=O (stereo not given)	> 100 µM	> 100 µM	> 100 µM	> 100 µM	67.5 µM									
CC(=O)C1=C(O)CC2CC3c4[nH]c5ccccc5c4CCN3CC2C1 (stereo not given)	> 100 µM		> 100 µM	> 100 µM	> 100 µM									
CN(C)c1ccc(/C=c2\sc3nc4ccccc4n3c2=O)cc1	> 100 µM	> 100 µM	> 100 µM	> 100 µM	> 100 µM									
Cc1cccc(NC(=O)c2cccc([N+](=O)[O-])c2O)c1C	> 100 µM	79.1 µM	> 100 µM	61 µM	> 100 µM					> 100 µM	> 100 µM	> 100 µM	> 100 µM	81.2 µM
